Test [1] has as its target T1, Sentrin-specific protease 8 (Homo sapiens, UniProt Q96LD8).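 Note: luminescence read-out of SENP8 inhibition, dose-response confirmation following an ultra-high-throughput screen.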
T1 sequence (Q96LD8 whole entry): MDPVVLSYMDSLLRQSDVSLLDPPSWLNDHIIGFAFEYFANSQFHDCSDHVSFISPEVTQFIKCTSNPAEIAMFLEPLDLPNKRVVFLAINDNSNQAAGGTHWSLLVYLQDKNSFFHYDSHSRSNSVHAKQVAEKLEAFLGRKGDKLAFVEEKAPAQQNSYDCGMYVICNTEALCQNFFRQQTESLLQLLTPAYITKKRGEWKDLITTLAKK
It is filed as functional.

Test [2] deals with T2, Cytochrome P450 2C9 (Homo sapiens, UniProt P11712). As to conditions: Potency.
Test [3] concerns the target T3, Sentrin-specific protease 6 (Homo sapiens, UniProt Q9GZR1).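 Note: Luminescence-based dose-response confirmatory assay of SENP6 inhibition, following up an ultra-high-throughput screen.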
T3 sequence (Q9GZR1 whole entry): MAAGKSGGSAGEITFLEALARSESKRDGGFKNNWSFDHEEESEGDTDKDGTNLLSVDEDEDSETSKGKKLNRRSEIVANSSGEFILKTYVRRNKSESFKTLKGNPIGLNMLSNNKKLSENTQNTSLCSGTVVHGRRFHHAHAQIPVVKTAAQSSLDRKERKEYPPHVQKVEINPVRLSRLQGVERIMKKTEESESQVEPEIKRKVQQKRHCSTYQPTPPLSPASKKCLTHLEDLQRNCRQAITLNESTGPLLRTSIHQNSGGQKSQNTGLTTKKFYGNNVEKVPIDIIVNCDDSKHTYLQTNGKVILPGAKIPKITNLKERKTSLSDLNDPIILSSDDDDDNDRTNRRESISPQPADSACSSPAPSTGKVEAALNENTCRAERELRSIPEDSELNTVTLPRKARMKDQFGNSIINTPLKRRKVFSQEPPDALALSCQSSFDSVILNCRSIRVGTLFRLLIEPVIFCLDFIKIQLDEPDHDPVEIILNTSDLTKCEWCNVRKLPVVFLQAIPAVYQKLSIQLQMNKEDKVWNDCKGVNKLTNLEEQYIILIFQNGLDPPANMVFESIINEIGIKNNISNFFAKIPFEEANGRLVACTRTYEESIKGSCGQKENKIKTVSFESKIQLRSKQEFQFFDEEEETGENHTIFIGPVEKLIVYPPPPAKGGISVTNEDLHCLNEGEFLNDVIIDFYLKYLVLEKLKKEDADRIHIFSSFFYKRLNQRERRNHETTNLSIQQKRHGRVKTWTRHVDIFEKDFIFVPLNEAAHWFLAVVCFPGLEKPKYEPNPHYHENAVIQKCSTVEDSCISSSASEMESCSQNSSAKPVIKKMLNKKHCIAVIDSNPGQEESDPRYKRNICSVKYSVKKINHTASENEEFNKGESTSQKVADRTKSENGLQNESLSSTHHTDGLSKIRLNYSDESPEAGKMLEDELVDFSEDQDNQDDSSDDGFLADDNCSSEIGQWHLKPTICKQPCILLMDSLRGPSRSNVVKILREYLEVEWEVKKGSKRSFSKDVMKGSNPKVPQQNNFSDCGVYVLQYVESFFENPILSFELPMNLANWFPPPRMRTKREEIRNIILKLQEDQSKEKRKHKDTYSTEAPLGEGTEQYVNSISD
It counts as functional.

Test [4] deals with T4, Sentrin-specific protease 7 (Homo sapiens, UniProt Q9BQF6).
T4 sequence (Q9BQF6 whole entry): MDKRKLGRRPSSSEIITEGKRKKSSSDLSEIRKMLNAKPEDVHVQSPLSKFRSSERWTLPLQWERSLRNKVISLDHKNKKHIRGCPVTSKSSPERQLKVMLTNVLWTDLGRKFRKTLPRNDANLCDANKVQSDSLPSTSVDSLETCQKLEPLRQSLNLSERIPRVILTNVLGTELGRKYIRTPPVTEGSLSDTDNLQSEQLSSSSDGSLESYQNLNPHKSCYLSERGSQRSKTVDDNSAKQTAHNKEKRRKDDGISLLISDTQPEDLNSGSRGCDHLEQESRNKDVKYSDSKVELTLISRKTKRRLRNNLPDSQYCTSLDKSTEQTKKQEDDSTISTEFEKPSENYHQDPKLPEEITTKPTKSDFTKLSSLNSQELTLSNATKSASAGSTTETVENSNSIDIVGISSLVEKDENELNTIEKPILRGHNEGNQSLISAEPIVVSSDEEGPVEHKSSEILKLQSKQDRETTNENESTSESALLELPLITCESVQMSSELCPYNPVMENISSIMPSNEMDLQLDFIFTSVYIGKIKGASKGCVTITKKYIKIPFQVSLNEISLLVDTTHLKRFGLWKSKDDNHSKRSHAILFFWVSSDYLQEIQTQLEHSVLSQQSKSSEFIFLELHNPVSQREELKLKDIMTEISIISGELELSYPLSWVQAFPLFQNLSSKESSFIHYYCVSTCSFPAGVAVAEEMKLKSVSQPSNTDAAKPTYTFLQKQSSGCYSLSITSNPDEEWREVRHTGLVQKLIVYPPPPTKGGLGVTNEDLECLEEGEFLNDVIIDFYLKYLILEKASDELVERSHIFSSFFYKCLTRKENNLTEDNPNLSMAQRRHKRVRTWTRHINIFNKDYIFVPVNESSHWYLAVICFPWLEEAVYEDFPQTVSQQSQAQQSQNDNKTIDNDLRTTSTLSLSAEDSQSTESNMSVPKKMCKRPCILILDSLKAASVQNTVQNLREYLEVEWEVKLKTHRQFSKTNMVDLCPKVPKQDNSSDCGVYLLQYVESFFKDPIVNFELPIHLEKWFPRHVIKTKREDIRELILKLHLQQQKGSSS
It counts as functional.

The target in test [5] is T5, Caspase-3 (Homo sapiens, UniProt P42574).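 Note: Dose-response selectivity test against caspase-3 for candidate inhibitors of sentrin-specific proteases (SENPs).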
T5 sequence (P42574 whole entry): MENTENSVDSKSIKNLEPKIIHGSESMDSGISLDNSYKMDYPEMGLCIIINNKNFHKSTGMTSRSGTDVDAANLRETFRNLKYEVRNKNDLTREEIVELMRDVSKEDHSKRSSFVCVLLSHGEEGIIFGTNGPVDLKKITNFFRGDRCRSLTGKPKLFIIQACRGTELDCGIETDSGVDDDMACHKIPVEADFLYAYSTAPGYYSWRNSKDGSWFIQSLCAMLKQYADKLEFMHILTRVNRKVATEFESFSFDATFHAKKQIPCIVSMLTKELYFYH
It is filed as functional.

Test [6] addresses Cytochrome P450 3A4 (Homo sapiens, UniProt P08684). As to conditions: Potency.
The target in test [7] is T6, Corticotropin-releasing factor receptor 2/Corticotropin-releasing factor-binding protein (Homo sapiens, UniProt P24387+Q13324).
T6 sequence (Q13324 whole entry): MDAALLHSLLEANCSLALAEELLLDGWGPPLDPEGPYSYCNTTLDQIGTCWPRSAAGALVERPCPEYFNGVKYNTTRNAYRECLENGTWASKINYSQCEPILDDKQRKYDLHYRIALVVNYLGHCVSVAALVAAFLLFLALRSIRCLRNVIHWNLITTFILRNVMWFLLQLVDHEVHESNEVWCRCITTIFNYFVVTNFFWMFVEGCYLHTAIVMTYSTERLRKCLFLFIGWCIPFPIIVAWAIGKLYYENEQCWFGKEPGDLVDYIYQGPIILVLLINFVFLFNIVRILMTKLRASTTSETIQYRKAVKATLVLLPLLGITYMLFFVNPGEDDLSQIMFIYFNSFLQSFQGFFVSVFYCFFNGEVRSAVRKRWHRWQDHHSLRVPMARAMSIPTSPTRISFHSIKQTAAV
T6 sequence (P24387 whole entry): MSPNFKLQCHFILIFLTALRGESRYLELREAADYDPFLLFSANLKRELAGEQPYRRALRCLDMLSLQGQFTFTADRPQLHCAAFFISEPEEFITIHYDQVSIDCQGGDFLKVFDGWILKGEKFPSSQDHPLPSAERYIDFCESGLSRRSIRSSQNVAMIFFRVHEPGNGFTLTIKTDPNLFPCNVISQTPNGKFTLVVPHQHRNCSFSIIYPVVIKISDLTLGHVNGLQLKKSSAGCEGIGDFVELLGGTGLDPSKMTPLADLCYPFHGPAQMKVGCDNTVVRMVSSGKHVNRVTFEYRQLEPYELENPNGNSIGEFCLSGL
As to the kind of experiment: Dose Response confirmation of uHTS hits for small molecule antagonists of the CRF-binding protein and CRF-R2 receptor complex. As to conditions: read-out: IC50_Mean. It is filed as functional.

For test [8], the target named is T6, Corticotropin-releasing factor receptor 2/Corticotropin-releasing factor-binding protein. As to the kind of experiment: activators of CRF receptor 2 with binding protein – uHTS hits, confirmation (AID 602473). It is filed as functional. As to conditions: read-out: EC50_Mean.
For test [9], the target named is Voltage-dependent T-type calcium channel subunit alpha-1H (Homo sapiens, UniProt O95180). It counts as functional.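 Note: channel activity triggered by adding a high calcium stimulation buffer.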
Test [10] addresses FAD-linked sulfhydryl oxidase ALR (Homo sapiens, UniProt P55789). As to the kind of experiment: inhibitors of human ALR sulfhydryl oxidase, dose response, biochemical, H2O2 detection, luminescence, cherry-pick (AID 493248).
Test [11] has as its target Melanin-concentrating hormone receptor 1 (Homo sapiens, UniProt Q99705). As to the kind of experiment: Fluorescence-based counterscreen for antagonists of the G-protein coupled receptor 7 (GPR7): cell-based high throughput dose response assay to identify antagonists of the melanin-concentrating hormone receptor 1 (MCHR1). It is filed as functional.
The target in test [12] is T2, Cytochrome P450 2C9.
Test [13] has as its target Cytochrome P450 2D6 (Homo sapiens, UniProt P10635).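 Note: CYP2D6 member of a cytochrome P450 panel assay.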
For test [14], the target named is Eukaryotic translation initiation factor 4E (Mus musculus, UniProt P63073). Kind of test: eIF4E–eIF4G protein interaction inhibitors, dose response, biochemical, TR-FRET (AID 855).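 Note: potency for disrupting eIF4E binding to eIF4GI seen as loss of FRET.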 It is filed as functional. (In TR-FRET formats the signal depends on donor and acceptor labels being close together.)
Test [15] deals with T7, Carboxy-terminal domain RNA polymerase II polypeptide A small phosphatase 1 (Homo sapiens, UniProt Q9GZU7).
T7 sequence (Q9GZU7 whole entry): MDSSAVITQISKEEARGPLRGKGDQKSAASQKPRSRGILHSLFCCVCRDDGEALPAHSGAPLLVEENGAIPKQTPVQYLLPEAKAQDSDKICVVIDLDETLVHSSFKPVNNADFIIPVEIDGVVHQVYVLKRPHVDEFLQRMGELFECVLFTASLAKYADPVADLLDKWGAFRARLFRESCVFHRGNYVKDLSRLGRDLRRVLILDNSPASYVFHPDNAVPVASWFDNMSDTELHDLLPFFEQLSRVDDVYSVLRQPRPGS
Kind of test: inhibitors of CTDSP1, concentration-response testing, biochemical assay, absorbance-based, actives from ultra-high-throughput screening (AID 540297). It is filed as functional.

Active and inactive are the calls of the source.

Voltage-dependent T-type calcium channel subunit alpha-1H, sequence (O95180 whole entry): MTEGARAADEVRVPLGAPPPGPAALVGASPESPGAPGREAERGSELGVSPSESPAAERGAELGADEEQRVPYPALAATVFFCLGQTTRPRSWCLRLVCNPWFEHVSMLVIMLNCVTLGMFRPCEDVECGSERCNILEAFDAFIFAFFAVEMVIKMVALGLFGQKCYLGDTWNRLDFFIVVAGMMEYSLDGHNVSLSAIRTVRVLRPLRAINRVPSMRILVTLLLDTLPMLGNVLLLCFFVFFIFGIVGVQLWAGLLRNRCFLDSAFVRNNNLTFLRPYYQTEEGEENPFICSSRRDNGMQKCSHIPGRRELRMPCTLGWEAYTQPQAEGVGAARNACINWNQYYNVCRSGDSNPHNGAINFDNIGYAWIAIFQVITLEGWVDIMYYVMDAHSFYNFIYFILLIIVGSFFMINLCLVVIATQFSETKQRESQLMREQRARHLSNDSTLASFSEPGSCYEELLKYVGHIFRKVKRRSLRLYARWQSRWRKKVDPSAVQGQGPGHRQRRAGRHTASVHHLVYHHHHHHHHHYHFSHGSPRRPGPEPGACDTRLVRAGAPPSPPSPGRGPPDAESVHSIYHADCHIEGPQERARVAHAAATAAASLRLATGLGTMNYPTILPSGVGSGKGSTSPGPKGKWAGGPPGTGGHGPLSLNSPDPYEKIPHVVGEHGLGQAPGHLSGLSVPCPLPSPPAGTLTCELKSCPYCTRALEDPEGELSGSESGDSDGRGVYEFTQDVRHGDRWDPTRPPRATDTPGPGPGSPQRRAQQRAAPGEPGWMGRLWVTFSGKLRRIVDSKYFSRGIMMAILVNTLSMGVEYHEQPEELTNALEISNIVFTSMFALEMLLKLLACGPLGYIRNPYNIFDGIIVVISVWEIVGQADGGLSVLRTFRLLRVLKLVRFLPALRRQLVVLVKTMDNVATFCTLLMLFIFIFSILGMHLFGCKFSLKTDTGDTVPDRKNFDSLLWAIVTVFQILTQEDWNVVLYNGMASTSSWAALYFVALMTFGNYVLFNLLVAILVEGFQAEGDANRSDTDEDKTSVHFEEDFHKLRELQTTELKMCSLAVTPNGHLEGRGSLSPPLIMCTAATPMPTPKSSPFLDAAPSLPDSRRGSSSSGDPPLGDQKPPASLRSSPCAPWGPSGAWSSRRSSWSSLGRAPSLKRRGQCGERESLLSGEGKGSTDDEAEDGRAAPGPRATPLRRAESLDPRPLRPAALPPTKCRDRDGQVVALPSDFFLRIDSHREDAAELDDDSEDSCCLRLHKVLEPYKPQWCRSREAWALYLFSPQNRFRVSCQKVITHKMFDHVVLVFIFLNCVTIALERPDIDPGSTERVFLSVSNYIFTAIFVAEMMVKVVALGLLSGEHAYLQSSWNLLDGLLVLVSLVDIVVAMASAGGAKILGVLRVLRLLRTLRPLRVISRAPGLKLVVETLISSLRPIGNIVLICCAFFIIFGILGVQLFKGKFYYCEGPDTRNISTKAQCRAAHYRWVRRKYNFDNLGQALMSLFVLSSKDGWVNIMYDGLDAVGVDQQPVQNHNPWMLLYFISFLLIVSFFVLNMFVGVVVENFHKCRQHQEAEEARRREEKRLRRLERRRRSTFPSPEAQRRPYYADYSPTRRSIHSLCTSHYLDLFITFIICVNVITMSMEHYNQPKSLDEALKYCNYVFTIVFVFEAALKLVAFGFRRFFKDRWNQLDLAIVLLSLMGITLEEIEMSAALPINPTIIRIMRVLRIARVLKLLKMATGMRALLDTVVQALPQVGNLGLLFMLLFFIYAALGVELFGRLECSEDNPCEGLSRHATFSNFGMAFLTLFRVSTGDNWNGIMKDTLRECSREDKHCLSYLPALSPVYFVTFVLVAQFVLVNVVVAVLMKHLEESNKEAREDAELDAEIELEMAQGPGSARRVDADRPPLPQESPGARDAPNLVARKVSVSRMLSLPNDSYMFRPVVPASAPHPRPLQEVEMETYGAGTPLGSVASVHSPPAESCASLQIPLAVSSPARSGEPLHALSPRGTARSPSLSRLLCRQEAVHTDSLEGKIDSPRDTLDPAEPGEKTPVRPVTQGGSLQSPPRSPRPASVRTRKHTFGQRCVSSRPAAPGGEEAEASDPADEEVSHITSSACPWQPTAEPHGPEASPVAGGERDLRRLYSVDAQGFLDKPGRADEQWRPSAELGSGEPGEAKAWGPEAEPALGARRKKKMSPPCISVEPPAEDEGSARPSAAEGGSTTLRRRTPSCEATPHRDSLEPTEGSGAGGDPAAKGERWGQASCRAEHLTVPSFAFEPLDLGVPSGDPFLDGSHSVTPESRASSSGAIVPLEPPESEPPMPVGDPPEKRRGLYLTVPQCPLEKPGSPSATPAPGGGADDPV
T2 sequence (P11712 whole entry): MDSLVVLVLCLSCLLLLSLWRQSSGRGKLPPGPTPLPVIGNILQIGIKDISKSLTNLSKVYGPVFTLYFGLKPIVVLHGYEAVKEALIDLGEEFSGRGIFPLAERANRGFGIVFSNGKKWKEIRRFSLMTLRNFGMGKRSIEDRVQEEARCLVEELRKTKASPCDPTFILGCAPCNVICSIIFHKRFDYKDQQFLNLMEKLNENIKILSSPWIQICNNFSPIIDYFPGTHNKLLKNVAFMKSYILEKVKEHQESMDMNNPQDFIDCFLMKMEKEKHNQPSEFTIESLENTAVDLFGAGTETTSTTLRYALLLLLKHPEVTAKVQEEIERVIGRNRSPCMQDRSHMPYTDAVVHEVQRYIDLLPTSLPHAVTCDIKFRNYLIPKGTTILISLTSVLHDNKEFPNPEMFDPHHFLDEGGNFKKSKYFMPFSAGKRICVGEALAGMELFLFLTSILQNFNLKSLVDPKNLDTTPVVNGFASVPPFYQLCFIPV
Eukaryotic translation initiation factor 4E, sequence (P63073 whole entry, the tested form may be a part): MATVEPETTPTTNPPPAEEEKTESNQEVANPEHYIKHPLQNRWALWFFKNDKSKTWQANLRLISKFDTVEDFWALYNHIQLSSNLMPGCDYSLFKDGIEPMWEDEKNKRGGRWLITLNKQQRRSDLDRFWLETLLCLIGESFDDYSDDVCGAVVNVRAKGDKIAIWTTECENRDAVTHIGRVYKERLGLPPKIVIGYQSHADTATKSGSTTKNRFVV
FAD-linked sulfhydryl oxidase ALR, sequence (P55789 whole entry): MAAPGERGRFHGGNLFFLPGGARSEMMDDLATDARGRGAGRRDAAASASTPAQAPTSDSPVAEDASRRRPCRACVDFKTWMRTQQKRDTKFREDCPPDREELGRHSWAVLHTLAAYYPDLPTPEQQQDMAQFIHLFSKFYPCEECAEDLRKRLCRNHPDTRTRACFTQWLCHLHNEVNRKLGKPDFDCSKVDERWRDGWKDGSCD
Melanin-concentrating hormone receptor 1, sequence (Q99705 whole entry): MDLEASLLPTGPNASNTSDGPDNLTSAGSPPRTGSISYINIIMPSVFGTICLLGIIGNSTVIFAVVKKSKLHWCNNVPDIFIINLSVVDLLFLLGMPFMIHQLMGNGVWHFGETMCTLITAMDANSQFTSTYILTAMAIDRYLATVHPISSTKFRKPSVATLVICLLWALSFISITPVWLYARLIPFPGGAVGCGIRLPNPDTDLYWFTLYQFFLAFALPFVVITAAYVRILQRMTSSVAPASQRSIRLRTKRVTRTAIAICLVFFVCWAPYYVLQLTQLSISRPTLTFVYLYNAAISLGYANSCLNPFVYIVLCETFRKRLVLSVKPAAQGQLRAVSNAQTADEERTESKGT
Cytochrome P450 2D6, sequence (P10635 whole entry): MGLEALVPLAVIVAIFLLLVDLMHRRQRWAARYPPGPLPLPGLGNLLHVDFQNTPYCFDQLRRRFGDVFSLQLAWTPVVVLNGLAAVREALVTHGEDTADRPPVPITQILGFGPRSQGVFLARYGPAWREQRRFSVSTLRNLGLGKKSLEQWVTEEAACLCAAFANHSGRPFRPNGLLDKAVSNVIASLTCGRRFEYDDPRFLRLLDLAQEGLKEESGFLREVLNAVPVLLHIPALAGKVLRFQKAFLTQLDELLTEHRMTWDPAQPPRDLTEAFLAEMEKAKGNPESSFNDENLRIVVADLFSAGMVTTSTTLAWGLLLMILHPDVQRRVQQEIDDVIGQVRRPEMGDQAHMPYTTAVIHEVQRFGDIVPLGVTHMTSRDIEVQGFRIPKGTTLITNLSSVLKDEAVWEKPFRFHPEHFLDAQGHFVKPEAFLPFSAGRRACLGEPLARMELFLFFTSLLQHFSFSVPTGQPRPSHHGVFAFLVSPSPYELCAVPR
Cytochrome P450 3A4, sequence (P08684 whole entry): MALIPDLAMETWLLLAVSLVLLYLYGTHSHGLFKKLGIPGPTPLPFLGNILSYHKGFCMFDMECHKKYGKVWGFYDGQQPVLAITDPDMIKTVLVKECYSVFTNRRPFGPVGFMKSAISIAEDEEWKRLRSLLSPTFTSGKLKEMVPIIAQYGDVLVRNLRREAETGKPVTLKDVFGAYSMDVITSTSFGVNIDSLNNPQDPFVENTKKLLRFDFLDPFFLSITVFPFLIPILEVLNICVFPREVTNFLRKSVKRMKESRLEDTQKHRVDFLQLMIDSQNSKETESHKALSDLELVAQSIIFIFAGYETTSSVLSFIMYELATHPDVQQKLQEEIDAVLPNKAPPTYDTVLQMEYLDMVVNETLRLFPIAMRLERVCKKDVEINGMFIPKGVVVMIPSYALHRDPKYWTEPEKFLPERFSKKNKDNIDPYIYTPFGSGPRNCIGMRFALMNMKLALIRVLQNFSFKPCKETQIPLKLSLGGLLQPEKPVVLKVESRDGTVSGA

Take `COc1ccc(/C=C/C(=O)c2ccccc2O)cc1`: the IC50 in test [1] is 10.6 µM (active); in [3], 6 µM (active); in test [4] it was 3.93 µM (active); in test [5], 23.1 µM (active). Further, the AC50 – broadly, the concentration at which the activity in the assay is half-maximal – in [2] was 3.98 µM (inconclusive).

Turning to `CC1CCC2C(=O)OC(CO)CN2C1c1ccc(Br)cc1` (centres undefined), the AC50 in test [2] is 3.98 µM (inconclusive); in test [6], 3.16 µM (inconclusive).

For `Cc1ccccc1NC(=O)c1ccc(-c2ccc(Cl)cc2Cl)o1`, the IC50 in test [7] was > 47.1 µM (inactive). The EC50 in [8] was > 53 µM (inactive); in [9], 7.96 µM (active).

For the compound `Cc1nn(Cc2c(F)c(F)c(F)c(F)c2F)c(C)c1NC(=O)c1ccc(COc2ccc(F)cc2)o1`, in test [9], the EC50 is 4.88 µM (active).

In the case of `CCn1c(CNc2ccc(Cl)cc2)nnc1SCCN1CCCCC1`, the AC50 in test [10] was 8.49 µM (active). The IC50 in test [11] is listed as 21.5 µM (not active).

For `FC(F)(F)c1cc(C(F)(F)F)c2ccc(N3CCN(c4ccc(Cl)cc4)CC3)nc2n1`, in test [9], the EC50 is 5.43 µM (active).

With `C[C@@H](/C=C\c1cccc(Oc2ccc(F)cc2)c1)N(O)C(N)=O`, the AC50 was 25.1 µM (inconclusive) in test [2], 31.6 µM (inconclusive) in [12] and 10 µM (inconclusive) in [13].

On to `Cc1ccc([N+](=O)[O-])cc1NC(=O)Cc1cccs1`, for which the IC50 in test [14] was 50 µM (inactive); in test [15], 4.16 µM (active).
